Laboratory results from paper PMC12749626, “Expediting hit-to-lead progression in drug discovery through reaction prediction and multi-dimensional optimization” (Nature Communications, 2025).
Converted amounts (≈) assume the structure as drawn.

Tests used:
[1] = molecular target: HISTAMINE H2 REC. (Homo sapiens, UniProt P25021); conditions: 10 uM; n=2
[2] = molecular target: C[…]. CB1 (Homo sapiens, UniProt P21554); conditions: 10 uM; n=2
[3] = system: NEURONAL NICOTINIC REC.; conditions: 10 uM; n=2
[4] = molecular target: DOPAMINE D2 REC. (short) (Homo sapiens, UniProt P14416); conditions: 10 uM; n=2
[5] = molecular target: CYP3A4 (Homo sapiens, UniProt P08684); experiment: Cytochrome P450 inhibition assay, CYP3A4; conditions: liver microsomes
[6] = system: MUSCULAR NICOTINIC REC.; conditions: 10 uM; n=2
[7] = molecular target: CYP2D6 (Homo sapiens, UniProt P10635); experiment: Cytochrome P450 inhibition assay, CYP2D6; conditions: liver microsomes
Chain of CYP2D6 (P10635 whole entry): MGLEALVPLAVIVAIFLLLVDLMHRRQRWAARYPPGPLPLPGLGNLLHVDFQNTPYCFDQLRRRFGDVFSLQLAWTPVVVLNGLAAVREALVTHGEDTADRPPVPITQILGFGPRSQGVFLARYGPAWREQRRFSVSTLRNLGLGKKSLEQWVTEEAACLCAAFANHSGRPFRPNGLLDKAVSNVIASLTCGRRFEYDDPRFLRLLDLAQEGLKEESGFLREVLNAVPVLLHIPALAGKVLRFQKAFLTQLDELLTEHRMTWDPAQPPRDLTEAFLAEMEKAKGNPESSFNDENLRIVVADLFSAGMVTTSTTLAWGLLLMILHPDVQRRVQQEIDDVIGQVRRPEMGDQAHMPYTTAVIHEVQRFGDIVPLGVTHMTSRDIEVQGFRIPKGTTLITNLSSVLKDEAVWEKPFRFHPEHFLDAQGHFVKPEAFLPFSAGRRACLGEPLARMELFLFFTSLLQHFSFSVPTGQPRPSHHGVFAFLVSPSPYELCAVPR

[8] = Hepatocyte clearance; conditions: for hepatocyte CLint at 1 µM: human, hepatocytes
[9] = system: CA2+ CHANNEL (L-TYPE); conditions: 10 uM; n=2
[10] = molecular target: CYP2C9 (Homo sapiens, UniProt P11712); experiment: Cytochrome P450 inhibition assay, CYP2C9; conditions: liver microsomes
[11] = system: PCP NMDA REC.; conditions: 10 uM; n=2
[12] = molecular target: T1, GLUC[…]. (Homo sapiens, UniProt P04150); conditions: 10 uM; n=2
[13] = system: GABA-A; conditions: 10 uM; n=2
[14] = molecular target: ANDROGEN REC. (Homo sapiens, UniProt P10275); experiment: biochemical; conditions: read-out: ANDROGEN REC. percent activity or inhibition compared to the assay reference
Chain of ANDROGEN REC. (P10275 whole entry): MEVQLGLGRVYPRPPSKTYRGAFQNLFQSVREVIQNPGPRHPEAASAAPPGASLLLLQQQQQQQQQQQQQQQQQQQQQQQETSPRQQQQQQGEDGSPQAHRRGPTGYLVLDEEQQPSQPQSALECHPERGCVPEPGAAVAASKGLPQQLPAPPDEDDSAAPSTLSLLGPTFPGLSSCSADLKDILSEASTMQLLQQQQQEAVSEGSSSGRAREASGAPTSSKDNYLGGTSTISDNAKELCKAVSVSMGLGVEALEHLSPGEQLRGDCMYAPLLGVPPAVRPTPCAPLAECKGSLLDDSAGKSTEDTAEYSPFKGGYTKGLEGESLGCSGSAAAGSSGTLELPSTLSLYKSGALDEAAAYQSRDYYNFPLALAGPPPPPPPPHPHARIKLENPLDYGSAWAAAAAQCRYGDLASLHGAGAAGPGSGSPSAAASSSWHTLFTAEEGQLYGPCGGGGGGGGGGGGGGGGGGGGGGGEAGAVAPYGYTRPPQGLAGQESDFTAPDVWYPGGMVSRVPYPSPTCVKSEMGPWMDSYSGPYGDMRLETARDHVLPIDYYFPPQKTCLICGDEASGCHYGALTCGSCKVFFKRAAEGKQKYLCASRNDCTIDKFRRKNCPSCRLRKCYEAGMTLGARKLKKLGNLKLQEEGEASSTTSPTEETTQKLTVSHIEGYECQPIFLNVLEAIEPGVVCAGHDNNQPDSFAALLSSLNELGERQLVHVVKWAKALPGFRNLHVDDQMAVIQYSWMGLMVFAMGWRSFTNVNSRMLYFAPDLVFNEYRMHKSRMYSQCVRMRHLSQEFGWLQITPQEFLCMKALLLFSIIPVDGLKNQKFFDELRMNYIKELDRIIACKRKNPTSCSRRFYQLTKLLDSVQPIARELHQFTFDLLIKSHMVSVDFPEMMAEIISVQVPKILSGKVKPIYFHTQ

[15] = molecular target: A[…]. ENZ. (Homo sapiens, UniProt P12821); experiment: biochemical; conditions: read-out: A[…]. ENZ. percent activity or inhibition compared to the assay reference
Chain of A[…]. ENZ. (P12821 30-1306): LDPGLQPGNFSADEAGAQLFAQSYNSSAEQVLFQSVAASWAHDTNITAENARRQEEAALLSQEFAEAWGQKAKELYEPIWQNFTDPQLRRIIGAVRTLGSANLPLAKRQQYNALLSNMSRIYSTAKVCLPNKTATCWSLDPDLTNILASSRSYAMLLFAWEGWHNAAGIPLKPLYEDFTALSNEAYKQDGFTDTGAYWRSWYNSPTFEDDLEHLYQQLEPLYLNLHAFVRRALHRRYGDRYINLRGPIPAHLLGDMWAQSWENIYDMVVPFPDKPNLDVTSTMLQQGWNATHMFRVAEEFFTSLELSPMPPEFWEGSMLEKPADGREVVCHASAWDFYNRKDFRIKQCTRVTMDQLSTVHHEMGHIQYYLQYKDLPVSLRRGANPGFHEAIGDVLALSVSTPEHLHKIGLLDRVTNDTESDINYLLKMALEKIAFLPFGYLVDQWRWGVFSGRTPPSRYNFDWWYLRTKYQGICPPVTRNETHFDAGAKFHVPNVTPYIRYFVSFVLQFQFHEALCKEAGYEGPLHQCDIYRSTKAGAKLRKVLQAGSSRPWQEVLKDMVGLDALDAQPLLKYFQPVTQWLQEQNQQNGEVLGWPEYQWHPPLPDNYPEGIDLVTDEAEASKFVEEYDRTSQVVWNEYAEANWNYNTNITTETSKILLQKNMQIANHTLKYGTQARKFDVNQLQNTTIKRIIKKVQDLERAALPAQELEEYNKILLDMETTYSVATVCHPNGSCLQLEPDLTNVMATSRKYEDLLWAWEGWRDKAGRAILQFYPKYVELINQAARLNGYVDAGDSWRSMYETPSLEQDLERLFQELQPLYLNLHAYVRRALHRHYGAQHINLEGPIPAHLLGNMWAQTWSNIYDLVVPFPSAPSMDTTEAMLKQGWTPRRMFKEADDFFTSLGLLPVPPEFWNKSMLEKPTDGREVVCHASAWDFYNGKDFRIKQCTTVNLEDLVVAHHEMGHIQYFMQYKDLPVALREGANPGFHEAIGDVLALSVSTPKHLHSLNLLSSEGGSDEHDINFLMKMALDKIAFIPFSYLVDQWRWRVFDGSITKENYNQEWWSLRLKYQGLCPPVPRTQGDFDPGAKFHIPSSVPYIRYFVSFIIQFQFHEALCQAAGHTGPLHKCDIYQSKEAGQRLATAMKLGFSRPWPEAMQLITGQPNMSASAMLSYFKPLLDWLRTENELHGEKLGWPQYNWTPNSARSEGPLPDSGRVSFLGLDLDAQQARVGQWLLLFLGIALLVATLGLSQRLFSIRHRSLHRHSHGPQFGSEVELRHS

[16] = molecular target: β2-ADRENOCEPTOR (Homo sapiens, UniProt P07550); experiment: biochemical; conditions: read-out: β2-ADRENOCEPTOR percent activity or inhibition compared to the assay reference
[17] = molecular target: CDK2 (Homo sapiens, UniProt P24941); experiment: biochemical; conditions: read-out: CDK2 percent activity or inhibition compared to the assay reference
[18] = molecular target: ABL1 (Homo sapiens, UniProt P00519); experiment: biochemical; conditions: read-out: ABL1 percent activity or inhibition compared to the assay reference
[19] = molecular target: HISTAMINE H3 REC. (Homo sapiens, UniProt Q9Y5N1); experiment: biochemical; conditions: read-out: HISTAMINE H3 REC. percent activity or inhibition compared to the assay reference
[20] = molecular target: PHOSPHODIESTERASE 3B (Homo sapiens, UniProt Q13370); experiment: biochemical; conditions: read-out: PHOSPHODIESTERASE 3B percent activity or inhibition compared to the assay reference
[21] = molecular target: GSK-3B (Homo sapiens, UniProt P49841); experiment: biochemical; conditions: read-out: GSK-3B percent activity or inhibition compared to the assay reference
Chain of GSK-3B (P49841 whole entry): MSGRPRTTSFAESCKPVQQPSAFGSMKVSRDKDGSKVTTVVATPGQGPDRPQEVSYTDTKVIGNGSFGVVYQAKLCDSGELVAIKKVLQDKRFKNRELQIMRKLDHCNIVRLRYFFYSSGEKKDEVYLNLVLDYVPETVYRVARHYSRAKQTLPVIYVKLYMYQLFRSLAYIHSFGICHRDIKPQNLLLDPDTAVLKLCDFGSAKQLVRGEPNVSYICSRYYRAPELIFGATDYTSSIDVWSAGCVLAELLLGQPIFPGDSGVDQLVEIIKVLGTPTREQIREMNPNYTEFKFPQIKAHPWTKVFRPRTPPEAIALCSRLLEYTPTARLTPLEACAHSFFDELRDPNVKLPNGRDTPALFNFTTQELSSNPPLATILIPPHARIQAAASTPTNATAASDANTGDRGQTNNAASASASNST

[22] = Microsomal clearance, mouse microsomes
[23] = molecular target: 5HT2A (Homo sapiens, UniProt P28223); experiment: biochemical; conditions: read-out: 5HT2A percent activity or inhibition compared to the assay reference
[24] = molecular target: PPARγ (Homo sapiens, UniProt P37231); experiment: biochemical; conditions: read-out: PPARγ percent activity or inhibition compared to the assay reference
Chain of PPARγ (P37231 whole entry): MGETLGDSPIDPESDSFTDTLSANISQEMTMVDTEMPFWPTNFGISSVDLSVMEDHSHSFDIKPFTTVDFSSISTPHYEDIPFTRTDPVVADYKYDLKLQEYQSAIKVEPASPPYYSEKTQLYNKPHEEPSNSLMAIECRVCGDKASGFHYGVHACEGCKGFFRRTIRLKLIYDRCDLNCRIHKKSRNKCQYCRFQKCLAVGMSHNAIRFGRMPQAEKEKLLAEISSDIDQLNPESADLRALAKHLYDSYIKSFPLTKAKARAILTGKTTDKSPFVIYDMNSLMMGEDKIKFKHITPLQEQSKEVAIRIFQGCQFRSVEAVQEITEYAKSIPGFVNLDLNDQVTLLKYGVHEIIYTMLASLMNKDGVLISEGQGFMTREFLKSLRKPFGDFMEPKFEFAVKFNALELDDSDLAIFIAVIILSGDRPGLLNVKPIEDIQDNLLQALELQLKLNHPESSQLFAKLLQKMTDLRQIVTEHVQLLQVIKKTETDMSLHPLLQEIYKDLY

[25] = molecular target: ADENOSINE A1 REC. (Homo sapiens, UniProt P30542); experiment: biochemical; conditions: read-out: ADENOSINE A1 REC. percent activity or inhibition compared to the assay reference
[26] = molecular target: ACETYLCHOLINESTERASE (Homo sapiens, UniProt P22303); experiment: biochemical; conditions: read-out: ACETYLCHOLINESTERASE percent activity or inhibition compared to the assay reference
Chain of UniProt P22303 (P22303 32-614): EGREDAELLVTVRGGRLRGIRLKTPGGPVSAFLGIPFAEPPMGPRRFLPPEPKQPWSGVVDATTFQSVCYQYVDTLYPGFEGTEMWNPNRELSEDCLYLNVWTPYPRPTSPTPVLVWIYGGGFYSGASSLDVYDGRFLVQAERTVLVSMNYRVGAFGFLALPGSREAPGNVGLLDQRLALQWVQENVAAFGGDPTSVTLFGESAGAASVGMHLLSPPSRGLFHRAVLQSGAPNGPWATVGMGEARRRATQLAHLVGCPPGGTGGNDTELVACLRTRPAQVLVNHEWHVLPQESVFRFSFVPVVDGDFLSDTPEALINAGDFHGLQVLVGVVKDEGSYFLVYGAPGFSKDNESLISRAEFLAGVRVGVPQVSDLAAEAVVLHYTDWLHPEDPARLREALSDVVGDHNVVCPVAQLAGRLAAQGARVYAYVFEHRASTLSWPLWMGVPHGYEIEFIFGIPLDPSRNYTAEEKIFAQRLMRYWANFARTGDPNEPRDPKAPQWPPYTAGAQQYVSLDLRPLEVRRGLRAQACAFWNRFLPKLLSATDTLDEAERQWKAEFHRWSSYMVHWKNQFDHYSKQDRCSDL

[27] = molecular target: 5HT2B (Homo sapiens, UniProt P41595); experiment: biochemical; conditions: read-out: 5HT2B percent activity or inhibition compared to the assay reference
[28] = molecular target: 5HT1A (Homo sapiens, UniProt P08908); experiment: biochemical; conditions: read-out: 5HT1A percent activity or inhibition compared to the assay reference
[29] = molecular target: GSK-3A (Homo sapiens, UniProt P49840); experiment: biochemical; conditions: read-out: GSK-3A percent activity or inhibition compared to the assay reference
[30] = molecular target: T1, GLUC[…].; experiment: biochemical; conditions: read-out: GLUC[…]. percent activity or inhibition compared to the assay reference
[31] = molecular target: ADENOSINE A3 REC. (Homo sapiens, UniProt P0DMS8); experiment: biochemical; conditions: read-out: ADENOSINE A3 REC. percent activity or inhibition compared to the assay reference
Chain of ADENOSINE A3 REC. (P0DMS8 whole entry): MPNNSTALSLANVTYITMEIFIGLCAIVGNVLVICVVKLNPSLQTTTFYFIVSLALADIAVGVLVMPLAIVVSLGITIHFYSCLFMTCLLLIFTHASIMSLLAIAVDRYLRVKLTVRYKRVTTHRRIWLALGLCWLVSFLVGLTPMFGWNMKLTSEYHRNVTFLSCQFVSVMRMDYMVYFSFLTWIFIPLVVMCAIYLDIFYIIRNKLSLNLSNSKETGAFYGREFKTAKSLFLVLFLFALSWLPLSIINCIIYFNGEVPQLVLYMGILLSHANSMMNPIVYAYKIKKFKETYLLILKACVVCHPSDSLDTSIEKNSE

[32] = molecular target: […]. M1 (Homo sapiens, UniProt P11229); experiment: biochemical; conditions: read-out: […]. M1 percent activity or inhibition compared to the assay reference
Chain of […]. M1 (P11229 whole entry): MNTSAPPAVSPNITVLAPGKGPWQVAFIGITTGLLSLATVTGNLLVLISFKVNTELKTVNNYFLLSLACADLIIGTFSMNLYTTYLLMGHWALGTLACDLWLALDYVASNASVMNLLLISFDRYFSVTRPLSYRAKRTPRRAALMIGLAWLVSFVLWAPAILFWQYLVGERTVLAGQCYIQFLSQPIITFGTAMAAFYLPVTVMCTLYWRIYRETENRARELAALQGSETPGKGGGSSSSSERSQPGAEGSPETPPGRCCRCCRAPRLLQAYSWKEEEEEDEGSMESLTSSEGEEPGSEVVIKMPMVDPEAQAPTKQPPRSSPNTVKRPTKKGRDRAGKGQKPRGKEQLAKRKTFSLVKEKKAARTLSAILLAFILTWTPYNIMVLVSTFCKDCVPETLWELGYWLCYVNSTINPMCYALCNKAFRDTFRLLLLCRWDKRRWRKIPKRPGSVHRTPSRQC

[33] = molecular target: ANGIOTENSIN II REC. 1 (Homo sapiens, UniProt P30556); experiment: biochemical; conditions: read-out: ANGIOTENSIN II REC. 1 percent activity or inhibition compared to the assay reference
[34] = Solubility in FESSIF; type: physicochemical

| SMILES | NEURONAL NICOTINIC REC. percent activity or inhibition compared to the assay reference [3] [%] | CYP3A4 Inhibition [5] [%] | MUSCULAR NICOTINIC REC. percent activity or inhibition compared to the assay reference [6] [%] | CYP2D6 Inhibition [7] [%] | CA2+ CHANNEL (L-TYPE) percent activity or inhibition compared to the assay reference [9] [%] | CYP2C9 Inhibition [10] [%] | PCP NMDA REC. percent activity or inhibition compared to the assay reference [11] [%] | GABA-A percent activity or inhibition compared to the assay reference [13] [%] | inhibition at 10 µM [14] [%] | inhibition at 10 µM [15] [%] | inhibition at 10 µM [16] [%] | inhibition at 10 µM [17] [%] | inhibition at 10 µM [18] [%] | inhibition at 10 µM [19] [%] | inhibition at 10 µM [20] [%] | inhibition at 10 µM [21] [%] | microsomal CLint at 1 µM [22] [µL/min/mg] | inhibition at 10 µM [23] [%] | hepatocyte CLint at 1 µM [8] [µL/min/1e6 cells] | inhibition at 10 µM [24] [%] | also measured |
| --- | --- | --- | --- | --- | --- | --- | --- | --- | --- | --- | --- | --- | --- | --- | --- | --- | --- | --- | --- | --- | --- |
| O=C(c1ccc2nc(-c3cnccc3C3(C4CCC4)CC3)oc2c1)N1CCN(c2nc3nc(Cl)ccc3o2)CC1 [Compound 27] | -8 | > 90 | 2 | 79 | 90 | 73 | 8 | 69 | – | – | – | – | – | – | – | – | – | – | – | – | HISTAMINE H2 REC. percent activity or inhibition compared to the assay reference [1]: -4%; C[…]. CB1 percent activity or inhibition compared to the assay reference [2]: 18%; DOPAMINE D2 REC. (short) percent activity or inhibition compared to the assay reference [4]: 13%; Hepatocyte clearance ([8]; cryopreserved hepatocytes of human origin, 1 µM compound): 101.0 µL/min/10^6 cells; GLUC[…]. percent activity or inhibition compared to the assay reference [12]: 5% |
| O=C(c1ccc2nc(-c3cccnc3)oc2c1)N1CCN(c2nc3ccccc3c(=O)[nH]2)CC1 [Compound 17] | – | 16 | – | -24 | – | 2 | – | – | 6 | 16 | 1 | 3 | 2 | 14 | 2 | -21 | 10 | 7 | 7.3 | -4 | inhibition at 10 µM [25]: 70%; inhibition at 10 µM [26]: 3%; inhibition at 10 µM [27]: 28%; inhibition at 10 µM [28]: 1%; inhibition at 10 µM [29]: 8%; inhibition at 10 µM [30]: -13%; inhibition at 10 µM [31]: 13%; inhibition at 10 µM [32]: 9%; inhibition at 10 µM [33]: -3% |
| O=C(c1ccc2nc(-c3cnccc3C3CCCC3)oc2c1)N1CCN(c2nc3nc(Cl)ccc3o2)CC1 [Compound 23] | -3 | > 90 | 0 | 38 | 73 | 45 | 7 | 16 | -10 | -17 | 4 | 8 | -8 | 4 | -8 | -20 | 176 | 2 | 179 | 7 | solubility [34]: 1.9 µg/mL (≈ 3.59 µM); inhibition at 10 µM [25]: 24%; inhibition at 10 µM [26]: -1%; inhibition at 10 µM [27]: 3%; inhibition at 10 µM [28]: 11%; inhibition at 10 µM [29]: 1%; inhibition at 10 µM [30]: -2%; inhibition at 10 µM [31]: 21%; inhibition at 10 µM [32]: 10%; inhibition at 10 µM [33]: 11% |
| O=C(c1ccc2nc(-c3cnccc3C3CCCC3)oc2c1)N1CC2(CC(n3cnc(C4CC4)n3)C2)C1 [Compound 29] | 6 | 84 | 24 | 34 | 32 | 70 | -1 | 61 | 7 | -13 | 7 | -6 | -5 | 12 | 6 | -19 | 536 | 10 | 181 | 16 | solubility [34]: 25 µg/mL (≈ 50.5 µM); inhibition at 10 µM [25]: 9%; inhibition at 10 µM [26]: 0%; inhibition at 10 µM [27]: 55%; inhibition at 10 µM [28]: 19%; inhibition at 10 µM [29]: 16%; inhibition at 10 µM [30]: -6%; inhibition at 10 µM [31]: 28%; inhibition at 10 µM [32]: 8%; inhibition at 10 µM [33]: 15% |
